# Patent US6518291B1, “Inhibitors of IMPDH enzyme” (Vertex Pharmaceuticals, Incorporated, priority 1997, dated 2003)
# Target: IMPDH human type II (Homo sapiens, UniProt P12268)
# Assay: IMPDH Activity Inhibition Assay (spectrophotometric, NADH formation at 340 nm)
# Format: biochemical
# Settings: 37° C., tight-binding equations of Henderson
# Description: We measured the inhibition constants of the compounds listed in Table II utilizing the following protocol:
# IMP dehydrogenase activity was assayed following an adaptation of the method first reported by Magasanik. [Magasanik, B. Moyed, H. S. and Gehring L. B. (1957) J. Biol. Chem. 226, 339]. Enzyme activity was measured spectrophotometrically, by monitoring the increase in absorbance at 340 nm due to the formation of NADH (ε340 is 6220 M^−1 cm^−1). The reaction mixture contained 0.1 M Tris pH 8.0, 0.1 M KCl, 3 mM EDTA, 2 mM DTT, […] and enzyme (IMPDH human type II) at a concentration of 15 to 50 nM. This solution is incubated at 37° C. for 10 minutes. The reaction is started by adding NAD to a final concentration of […] and the initial rate is measured by following the linear increase in absorbance at 340 nm for 10 minutes. For reading in a standard spectrophotometer (path length 1 cm) the final volume in the cuvette is 1.0 ml. The assay has also been adapted to a 96 well microtiter plate format; in this case the concentrations of all the reagents remain the same and the final volume is decreased to 200 μl.
# For the analysis of inhibitors, the compound in question is dissolved in DMSO to a final concentration of 20 mM and added to the initial assay mixture for preincubation with the enzyme at a final volume of 2-5% (v/v). The reaction is started by the addition of NAD, and the initial rates measured as above. Ki determinations are made by measuring the initial velocities in the presence of varying amounts of inhibitor and fitting the data using the tight-binding equations of Henderson (Henderson, P. J. F. (1972) Biochem. J. 127, 321].
# Ki values are expressed in nM. Category “A” indicates 0.01 to 500 nm activity, category “B” indicates 501-5,000 nm activity, category “C” indicates 5,001 to 15,000 nm activity, category “D” indicates greater than 15,000 nm activity. The designation “ND” is used where a given compound was not tested.
row,Structure (SMILES),Ki [nM]
1,COc1cc(Nc2nc3ccc(CO)cc3[nH]2)ccc1-c1cnco1 [Compound 11],501 to 5000
2,COC(=O)c1ccc2nc(Nc3ccc(-c4cnco4)c(OC)c3)[nH]c2c1 [Compound 10],0.01 to 500
3,Cc1ccc(Nc2nc3ccccc3[nH]2)cc1 [Compound 4],> 15000
4,COc1cc(Nc2nc3ccccc3[nH]2)ccc1-c1cnco1 [Compound 5],501 to 5000
5,COc1cc(Nc2nc3cc(C)c(C)cc3o2)ccc1-c1cnco1 [Compound 17],0.01 to 500
6,COc1cc(Nc2nc3ccccc3[nH]2)ccc1C#N [Compound 15],5000 to 15000
7,COc1cc(Nc2nc3ccccc3s2)ccc1-c1cnco1 [Compound 9],0.01 to 500
8,C=CCc1cccc2nc(Nc3ccc(-c4cnco4)c(OC)c3)oc12 [Compound 25],0.01 to 500
9,COc1cc(Nc2nc3ccccc3s2)ccc1C#N [Compound 13],5000 to 15000
10,c1ccc(Nc2nc3ccccc3[nH]2)cc1 [Compound 2],> 15000
11,COc1cc(Nc2nc3c(C)cccc3[nH]2)ccc1-c1cnco1 [Compound 16],0.01 to 500

# Other lines, results leading:
row,Ki [nM],Structure (SMILES)
1,> 15000,N#Cc1ccc(Nc2nc3ccccc3o2)cc1Cl [Compound 20]
2,> 15000,COc1cc(Nc2nc3ccccc3o2)ccc1C#N [Compound 21]
3,0.01 to 500,COc1cc(Nc2nc3cc(C)ccc3o2)ccc1-c1cnco1 [Compound 12]
4,> 15000,c1ccc2oc(Nc3ccc(-c4cnco4)cc3)nc2c1 [Compound 18]
5,0.01 to 500,COc1cc(Nc2nc3ccccc3o2)ccc1-c1cnco1 [Compound 8]
6,501 to 5000,COc1cc(Nc2nc3cc(C)ccc3o2)ccc1-c1cnco1 [Compound 22]
7,0.01 to 500,COc1cc(Nc2nc3ccc(C)cc3o2)ccc1-c1cnco1 [Compound 14]
8,> 15000,COc1ccccc1Nc1nc2ccccc2s1 [Compound 7]
9,> 15000,COc1cccc(Nc2nc3ccccc3o2)c1 [Compound 24]
10,> 15000,COc1ccc(Nc2nc3ccccc3o2)cc1OC [Compound 19]
11,501 to 5000,Clc1cc(Nc2nc3ccccc3o2)ccc1-c1cnco1 [Compound 23]
12,> 15000,COc1ccccc1Nc1nc2ccccc2o1 [Compound 6]
13,> 15000,COc1ccc(Nc2nc3ccccc3[nH]2)cc1 [Compound 3]
